Experimental data from the supplement of paper PMC5579334.
± gives the standard deviation of the averaged measurements.

Experiments:
HS-PSS [1] = assay: % inhibition of CellTiter-Glo viability at highest tested concentration (72 h), relative to DMSO and benzethonium chloride controls; higher = more inhibition
How it was run: (§1)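 MPNST cell lines and primary human Schwann cells were seeded at 750–1000 cells per well into 384-well plates preprinted with each compound at five concentrations in 10-fold steps, then incubated 72 h at 37 °C, 5% CO2. CellTiter-Glo ATP luminescence gave viability, scaled between vehicle and positive-control wells, with duplicates averaged where present. Curves were fitted with a four-parameter logistic model. Percent inhibition refers to the top concentration, while drug sensitivity score and relative IC50, censored at the top concentration, come from these fits.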

[2] = tested on: HSC1 (primary human Schwann cells); assay: as above
How it was run: as §1

ST8814 [3] = assay: as above
How it was run: as §1

[4] = tested on: HSC2 (primary human Schwann cells); assay: as above
How it was run: as §1

S1507-2 [5] = assay: as above
How it was run: as §1

S462 [6] = assay: as above
How it was run: as §1

YST-1 [7] = assay: as above
How it was run: as §1

STS26T [8] = assay: as above
How it was run: as §1

HS-Sch-2 [9] = assay: as above
How it was run: as §1

HS-PSS [10] = assay: drug sensitivity score (DSS, CellTox-Green cytotoxicity, 72 h) (DSS (dimensionless)); higher = more cytotoxic; extreme values may be limits of the assay
How it was run: (§2)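 For 72 h at 37 °C, MPNST cell lines and primary human Schwann cells were exposed in 384-well plates to five 10-fold compound dilutions. CellTox-Green, added before seeding at a final 1:1000 dilution, gave fluorescence from DNA released by disrupted cells. Signals were scaled to vehicle and positive-control wells, cultures failing plate quality control were left out, and four-parameter logistic fits were applied. Relative IC50 and drug sensitivity score were derived from the fits, with IC50 censored at the top concentration.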

[11] = tested on: HSC1 (primary human Schwann cells); assay: as above
How it was run: as §2

ST8814 [12] = assay: as above
How it was run: as §2

[13] = tested on: HSC2 (primary human Schwann cells); assay: as above
How it was run: as §2

S1507-2 [14] = assay: as above
How it was run: as §2

STS26T [15] = assay: as above
How it was run: as §2

HS-PSS [16] = assay: drug sensitivity score (DSS, CellTiter-Glo viability, 72 h) (DSS (dimensionless)); higher = more sensitive; extreme values may be limits of the assay
How it was run: as §1

[17] = tested on: HSC1 (primary human Schwann cells); assay: as above
How it was run: as §1

ST8814 [18] = assay: as above
How it was run: as §1

[19] = tested on: HSC2 (primary human Schwann cells); assay: as above
How it was run: as §1

S1507-2 [20] = assay: as above
How it was run: as §1

S462 [21] = assay: as above
How it was run: as §1

YST-1 [22] = assay: as above
How it was run: as §1

STS26T [23] = assay: as above
How it was run: as §1

HS-Sch-2 [24] = assay: as above
How it was run: as §1

Compound | % inhibition (HS-PSS [1]) [%] | % inhibition [2] [%] | % inhibition (ST8814 [3]) [%] | % inhibition [4] [%] | % inhibition (S1507-2 [5]) [%] | % inhibition (S462 [6]) [%] | % inhibition (YST-1 [7]) [%] | % inhibition (STS26T [8]) [%] | % inhibition (HS-Sch-2 [9]) [%] | drug sensitivity score (HS-PSS [10]) | drug sensitivity score [11] | drug sensitivity score (ST8814 [12]) | drug sensitivity score [13] | drug sensitivity score (S1507-2 [14]) | drug sensitivity score (STS26T [15]) | drug sensitivity score (HS-PSS [16]) | drug sensitivity score [17] | drug sensitivity score (ST8814 [18]) | drug sensitivity score [19] | drug sensitivity score (S1507-2 [20]) | drug sensitivity score (S462 [21]) | drug sensitivity score (YST-1 [22]) | drug sensitivity score (STS26T [23]) | drug sensitivity score (HS-Sch-2 [24])
O=C1c2c(O)ccc(O)c2C(=O)c2c(NCCNCCO)ccc(NCCNCCO)c21 [Mitoxantrone] (max concentration tested 1000 nM) | 28.8 | 37.8 | 46.7 | 43 | 43.44 ± 0.12 | 72.66 ± 0.27 | 77 | 53.5 | 42.7 | 0 | 0 | 1.65 | 0 | 0 | 1.34 | 1.94 | 2.89 | 2.63 | 5.2 | 2.8 ± 1.2 | 5.57 ± 0.84 | 10.7 | 2.45 | 4.38
CN(C)CCOc1ccc(/C(=C(/CCCl)c2ccccc2)c2ccccc2)cc1 [Toremifene] (max concentration tested 10000 nM) | 48.1 | 21.8 | 34.5 | 55.6 | 32.2 ± 11 | 22.3 ± 3 | 26.3 | 27.1 | 37.2 | 0 | 0 | 5.11 | 0 | 1.36 ± 0.28 | 0.141 | 2.31 | 1.48 | 1.19 | 3.28 | 1.26 ± 0.65 | 0.537 ± 0.16 | 0.84 | 0.998 | 1.63
C[C@@H]1C[C@H]2[C@@H]3CCC4=CC(=O)C=C[C@]4(C)[C@@]3(F)[C@@H](O)C[C@]2(C)[C@@]1(O)C(=O)CO [Dexamethasone] (max concentration tested 10000 nM) | -11.7 | -11.8 | 22.9 | -7.28 | 16.5 ± 13 | 9.85 ± 6.5 | 6.77 | 3.98 | 11.7 | 0 | 0 | 0 | 0 | 0 | 0 | 0 | 0 | 4.78 | 0 | 1.35 ± 1.9 | 0.0796 ± 0.11 | 2.91 | 0 | 0
O=c1[nH]cc(F)c(=O)[nH]1 [Fluorouracil] (max concentration tested 10000 nM) | 29.4 | 43.5 | 4.62 | 55.5 | 11 ± 7.6 | 27.2 ± 7 | 25.5 | 53.4 | 35 | 0 | 0 | 0 | 0 | 0 | 0 | 1.09 | 1.94 | 0 | 2.86 | 0.493 ± 0.7 | 0.808 ± 0.45 | 0.94 | 6.56 | 1.83
Nc1nc(OCc2cc(Br)cs2)c2[nH]cnc2n1 [Lomeguatrib] (max concentration tested 10000 nM) | 15.1 | -5.66 | -0.939 | -5.93 | -7.24 ± 3.2 | -14 ± 0.99 | -1.6 | -6.97 | -6.3 | 0 | 0 | 0 | 0 | 0 | 0 | 0.77 | 0 | 0 | 0 | 0 | 0 | 0 | 0 | 0
Nc1nc2[nH]cnc2c(=S)[nH]1 [Thioguanine] (max concentration tested 10000 nM) | 76.4 | 10.4 | 80.4 | -7.39 | 60.8 ± 2.1 | 74.5 ± 5.8 | 88.8 | 81 | 79.2 | 0 | 0 | 0.689 | 0 | 0.992 ± 1.4 | 4.01 | 7.46 | 0.0001 | 10.7 | 0 | 4.38 ± 1.2 | 7.88 ± 0.29 | 8.84 | 10.6 | 8.53
Cc1ccc(F)c(NC(=O)Nc2ccc(-c3cccc4[nH]nc(N)c34)cc2)c1 [Linifanib] (max concentration tested 1000 nM) | 9.61 | -2.2 | 10.9 | 11.5 | 10 ± 8.1 | 14.7 ± 3.3 | 6.46 | 5.78 | 1.61 | 0 | 0 | 0 | 0 | 0 | 0 | 0 | 0 | 0 | 0.0016 | 0.308 ± 0.44 | 0.159 ± 0.18 | 0 | 0 | 0
